The nature of series [1]: Log D shake flask method (octanol / PBS pH 7.4, HPLC). Conditions: octanol/phosphate-buffered saline (PBS); octanol / PBS pH 7.4, shake flask. Format: physicochemical. On the procedure: In order to classify the inventive compounds according to their lipophilicity, Log D values (distribution coefficient) were determined by means of the well-established shake flask method, measuring the partition of a compound between an octanol and phosphate-buffered saline (PBS, pH 7.4) by HPLC.

A short description of series [2]: Caco-2 permeability assay (CacoReady kit). In kind it is in vitro ADME. Conditions: human. The gist of the method: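 Read-out is the permeability coefficient Papp, obtained from transport across a Caco-2 barrier prepared from a ready-to-use kit following the manufacturer's instructions.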
Background: Passage across Caco-2 layers is used to estimate intestinal permeability.

Series [3] addresses T1, recombinant human transglutaminase 2 (Homo sapiens, UniProt P21980).
T1 construct: purchased Zedira T022
T1 sequence (P21980 1-687): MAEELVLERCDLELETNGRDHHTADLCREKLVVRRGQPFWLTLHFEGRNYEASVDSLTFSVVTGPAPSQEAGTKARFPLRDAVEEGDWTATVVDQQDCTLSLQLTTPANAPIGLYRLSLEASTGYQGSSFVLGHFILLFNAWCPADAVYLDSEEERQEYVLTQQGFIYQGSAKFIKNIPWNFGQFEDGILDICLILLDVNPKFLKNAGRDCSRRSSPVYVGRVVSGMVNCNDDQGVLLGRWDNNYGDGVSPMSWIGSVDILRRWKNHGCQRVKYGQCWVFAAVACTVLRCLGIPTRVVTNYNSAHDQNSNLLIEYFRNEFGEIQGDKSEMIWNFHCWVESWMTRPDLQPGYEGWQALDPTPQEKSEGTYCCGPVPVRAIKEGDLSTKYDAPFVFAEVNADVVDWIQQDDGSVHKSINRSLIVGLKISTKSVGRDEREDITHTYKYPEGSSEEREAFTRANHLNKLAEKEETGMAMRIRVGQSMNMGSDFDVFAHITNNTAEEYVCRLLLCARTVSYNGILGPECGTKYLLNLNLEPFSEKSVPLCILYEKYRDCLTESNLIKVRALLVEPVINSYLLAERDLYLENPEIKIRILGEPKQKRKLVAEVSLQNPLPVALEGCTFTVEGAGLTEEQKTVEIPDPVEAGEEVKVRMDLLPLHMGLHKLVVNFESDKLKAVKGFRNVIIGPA
The experiment in a line: Transglutaminase assay (dansylcadaverine incorporation into dimethylcasein, DCC-assay). In kind it is biochemical. Conditions: recombinant human TG2 10 nM, dansylcadaverine/dimethylcasein, 37° C. The gist of the method: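 IC50 derived from fluorescence slope between 20 and 30 min (λex 330 nm, λem 500 nm, 37 °C), expressed relative to a 2% DMSO control. Reaction: 10 nM recombinant human TG2, 4 μM dimethylcasein, 16.7 μM dansylcadaverine, 10 mM CaCl2 and glutathione, pH 8.0.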

As usually defined, the logD is lipophilicity at a set pH, counting ionised and neutral species. As usually defined, the Papp is a coefficient for how fast a substance crosses the barrier. Low readings indicate slow passage, high ones fast passage. One may read the IC50 as the concentration that gives 50% inhibition.

For the molecule `Cc1nc2ncccc2cc1C(=O)N[C@@H](CC/C=C/C(=O)NC1CCCC1)C(=O)Nc1cccn(CC(=O)NC23CC(C2)C3)c1=O` [III-146, (S,E)-N7-(1-(2-(bicyclo[1.1.1]pentan-1-ylamino)-2-oxoethyl)-2-oxo-1,2-dihydropyridin-3-yl)-N1-cyclopentyl-6-(2-methyl-1,8-naphthyridine-3-carboxamido)hept-2-enediamide], the log distribution coefficient (logD) in series [1] was less than 1. Also, the apparent permeability coefficient (Papp) in series [2] is less than 1 ×10⁻⁶ cm/s. Moreover, the IC50 in series [3] lay within 0.25 to 1.5 µM.

In turn, `COC(=O)/C=C/CC[C@H](NC(=O)c1oc2ccccc2c1C)C(=O)Nc1cccn(CC(=O)NCC23CC4CC(CC(C4)C2)C3)c1=O` [III-56, (S,E)-methyl 7-(1-(2-(1-adamantylmethylamino)-2-oxoethyl)-2-oxo-1,2-dihydropyridin-3-ylamino)-6-(3-methylbenzofuran-2-carboxamido)-7-oxohept-2-enoate] returned a pH-dependent lipophilicity (logD) in series [1] of 3 to 5. Moreover, the apparent permeability (Papp) in series [2] is 1 to 10 ×10⁻⁶ cm/s. The half-maximal inhibitory concentration (IC50) in series [3] was in the range of 0.025 to 0.25 µM.

`COC(=O)/C=C/CC[C@H](NC(=O)c1cncn1C)C(=O)Nc1cccn(CC23CC4CC(CC(C4)C2)C3)c1=O` [III-78, (S,E)-methyl 7-(1-(1-adamantylmethyl)-2-oxo-1,2-dihydropyridin-3-ylamino)-6-(1-methyl-1H-imidazole-5-carboxamido)-7-oxohept-2-enoate] gave a pH-dependent lipophilicity (logD) in series [1] of 3 to 5. For the same molecule, the Papp in series [2] was less than 1 ×10⁻⁶ cm/s. Also, the IC50 in series [3] lay in the range of 0.25 to 1.5 µM.

As to `COC(=O)/C=C/CC[C@H](NC(=O)c1oc2ccccc2c1C)C(=O)Nc1cccn(CC(=O)NC23CC4CC(C2)CC(C(=O)OC)(C4)C3)c1=O` [III-54, (S,E)-methyl 7-(1-(2-(3-methyladamantane-3-carboxylate-1-amino)-2-oxoethyl)-2-oxo-1,2-dihydropyridin-3-ylamino)-6-(3-methylbenzofuran-2-carboxamido)-7-oxohept-2-enoate], in series [1], the logD was in the range of 3 to 5. Also, the Papp in series [2] was less than 1 ×10⁻⁶ cm/s. Besides, the IC50 in series [3] is 0.025 to 0.25 µM.

`COC(=O)/C=C/CC[C@H](NC(=O)c1cncc(C(=O)OC)c1)C(=O)Nc1cccn(CC(=O)NC2C3CC4CC(C3)CC2C4)c1=O` (stereo partly drawn) [III-36, (S,E)-methyl 5-(1-(1-(2-(2-adamantylamino)-2-oxoethyl)-2-oxo-1,2-dihydropyridin-3-ylamino)-7-methoxy-1,7-dioxohept-5-en-2-ylcarbamoyl)nicotinate] returned a pH-dependent lipophilicity (logD) in series [1] of 3 to 5. In addition, in series [2], the Papp was less than 1 ×10⁻⁶ cm/s. For the same molecule, in series [3], the half-inhibitory concentration (IC50) was 0.025 to 0.25 µM.

Regarding `COC(=O)/C=C/CC[C@H](NC(=O)c1oc2ccccc2c1C)C(=O)Nc1cccn(CC(=O)NC23CC4CC(C2)CC(C(F)(F)F)(C4)C3)c1=O` [III-49, (S,E)-methyl 7-(1-(2-(3-trifluoromethyladamantan-1-amino)-2-oxoethyl)-2-oxo-1,2-dihydropyridin-3-ylamino)-6-(3-methylbenzofuran-2-carboxamido)-7-oxohept-2-enoate], the pH-dependent lipophilicity (logD) in series [1] was in the range of 3 to 5. The same molecule had an apparent permeability (Papp) in series [2] of 1 to 10 ×10⁻⁶ cm/s. The IC50 in series [3] was in the range of 0.025 to 0.25 µM.

In series [1], `CCOC(=O)/C=C/CC[C@H](NC(=O)c1oc2ccccc2c1C)C(=O)Nc1cccn(CC(=O)NC2C3CC4CC(C3)CC2C4)c1=O` (stereo partly drawn) [III-89, (S,E)-ethyl 7-(1-(2-(2-adamantylamino)-2-oxoethyl)-2-oxo-1,2-dihydropyridin-3-ylamino)-6-(3-methylbenzofuran-2-carboxamido)-7-oxohept-2-enoate] returned a logD of 3 to 5. Besides, the Papp in series [2] was 1 to 10 ×10⁻⁶ cm/s. Further, in series [3], the IC50 is less than 0.025 µM.

Take `COC(=O)/C=C/CC[C@H](NC(=O)c1cc(Cl)sc1Cl)C(=O)Nc1cccn(CC(=O)NC2C3CC4CC(C3)CC2C4)c1=O` (stereo partly drawn) [III-13, (S,E)-methyl 6-(2,5-dichlorothiophene-3-carboxamido)-7-(1-(2-(2-adamantylamino)-2-oxoethyl)-2-oxo-1,2-dihydropyridin-3-ylamino)-7-oxohept-2-enoate]: the logD in series [1] was in the range of 3 to 5. The same molecule displayed an apparent permeability coefficient (Papp) in series [2] of 1 to 10 ×10⁻⁶ cm/s. Also, in series [3], the IC50 is less than 0.025 µM.

For the molecule `COC(=O)/C=C/CC[C@H](NC(=O)c1snnc1C=O)C(=O)Nc1cccn(CC(=O)NC2(C(=O)O)C3CC4CC2CC(C(F)(F)F)(C4)C3)c1=O` (stereo partly drawn) [III-174, (S,E)-methyl 6-(4-formyl-1,2,3-thiadiazole-5-carboxamido)-7-(1-(2-(2-carboxy-2-amino-5-(trifluoromethyl)adamantane)-2-oxoethyl)-2-oxo-1,2-dihydropyridin-3-ylamino)-7-oxohept-2-enoate], the log distribution coefficient (logD) in series [1] was in the range of 1 to 3. The molecule also gave an apparent permeability coefficient (Papp) in series [2] of less than 1 ×10⁻⁶ cm/s. Besides, the IC50 in series [3] was 0.25 to 1.5 µM.

For the molecule `COC(=O)/C=C/CC[C@H](NC(=O)c1cnsn1)C(=O)Nc1cccn(CC(=O)NC23CC(C2)C3)c1=O` [III-173, (S,E)-methyl 7-(1-(2-(bicyclo[1.1.1]pentan-1-ylamino)-2-oxoethyl)-2-oxo-1,2-dihydropyridin-3-ylamino)-7-oxo-6-(1,2,5-thiadiazole-3-carboxamido)hept-2-enoate], the logD in series [1] is less than 1. In series [2], the Papp was less than 1 ×10⁻⁶ cm/s. Besides, the half-inhibitory concentration (IC50) in series [3] was in the range of 0.025 to 0.25 µM.

Turning to `COC(=O)/C=C/CC[C@H](NC(=O)c1cc2ccccc2[nH]1)C(=O)Nc1cccn(CC(=O)NC2C3CC4CC(C3)CC2C4)c1=O` (stereo partly drawn) [III-8, (S,E)-methyl 6-(1H-indole-2-carboxamido)-7-(1-(2-(2-adamantylamino)-2-oxoethyl)-2-oxo-1,2-dihydropyridin-3-ylamino)-7-oxohept-2-enoate], the pH-dependent lipophilicity (logD) in series [1] lay within 3 to 5. For the same molecule, the apparent permeability coefficient (Papp) in series [2] was less than 1 ×10⁻⁶ cm/s. In series [3], the half-maximal inhibitory concentration (IC50) was less than 0.025 µM.

With `COC(=O)/C=C/CC[C@H](NC(=O)c1oc2ccccc2c1C)C(=O)Nc1cccn(CC(=O)N[C@@H]2C[C@H]3CC[C@@H]2C3)c1=O` [III-63, (S,E)-methyl 7-(1-(2-((1R,2R,4S)-bicyclo[2.2.1]heptan-2-ylamino)-2-oxoethyl)-2-oxo-1,2-dihydropyridin-3-ylamino)-6-(3-methylbenzofuran-2-carboxamido)-7-oxohept-2-enoate], in series [1], the pH-dependent lipophilicity (logD) was 3 to 5. Moreover, the apparent permeability (Papp) in series [2] lay within 1 to 10 ×10⁻⁶ cm/s. Besides, in series [3], the IC50 was less than 0.025 µM.

The molecule `COC(=O)/C=C/CC[C@H](NC(=O)c1cncc([N+](=O)[O-])c1)C(=O)Nc1cccn(CC(=O)NC2C3CC4CC(C3)CC2C4)c1=O` (stereo partly drawn) [III-34, (S,E)-methyl 7-(1-(2-(2-adamantylamino)-2-oxoethyl)-2-oxo-1,2-dihydropyridin-3-ylamino)-6-(5-nitronicotinamido)-7-oxohept-2-enoate] registered a logD in series [1] of 3 to 5. In series [2], this molecule displayed a Papp of less than 1 ×10⁻⁶ cm/s. Further, the IC50 in series [3] is less than 0.025 µM.

Molecule `COC(=O)/C=C/CC[C@H](NC(=O)c1cc(C(=O)OC)cc([N+](=O)[O-])c1)C(=O)Nc1cccn(CC(=O)NC2C3CC4CC(C3)CC2C4)c1=O` (stereo partly drawn) [III-33, (S,E)-methyl 3-(1-(1-(2-(2-adamantylamino)-2-oxoethyl)-2-oxo-1,2-dihydropyridin-3-ylamino)-7-methoxy-1,7-dioxohept-5-en-2-ylcarbamoyl)-5-nitrobenzoate] had a pH-dependent lipophilicity (logD) in series [1] of 3 to 5. The molecule further gave a Papp in series [2] of less than 1 ×10⁻⁶ cm/s. Moreover, in series [3], the half-inhibitory concentration (IC50) was less than 0.025 µM.

As to `COC(=O)/C=C/CC[C@H](NC(=O)c1cc(Br)cs1)C(=O)Nc1cccn(CC(=O)NC2C3CC4CC(C3)CC2C4)c1=O` (stereo partly drawn) [III-18, (S,E)-methyl 6-(4-bromothiophene-2-carboxamido)-7-(1-(2-(2-adamantylamino)-2-oxoethyl)-2-oxo-1,2-dihydropyridin-3-ylamino)-7-oxohept-2-enoate], in series [1], the logD is 3 to 5. The molecule also returned an apparent permeability coefficient (Papp) in series [2] of less than 1 ×10⁻⁶ cm/s. In addition, in series [3], the IC50 was less than 0.025 µM.

In turn, `Cc1c(C(=O)N[C@@H](CC/C=C/S(C)(=O)=O)C(=O)Nc2cccn(CC(=O)NC3C4CC5CC(C4)CC3C5)c2=O)oc2ccccc12` (stereo partly drawn) [III-90, (S,E)-N-(1-(1-(2-(2-adamantylamino)-2-oxoethyl)-2-oxo-1,2-dihydropyridin-3-ylamino)-6-(methylsulfonyl)-1-oxohex-5-en-2-yl)-3-methylbenzofuran-2-carboxamide] yielded a pH-dependent lipophilicity (logD) in series [1] of 1 to 3. The molecule further came in with a Papp in series [2] of 1 to 10 ×10⁻⁶ cm/s. In addition, in series [3], the 50% inhibitory concentration (IC50) is less than 0.025 µM.

Molecule `COC(=O)/C=C/CC[C@H](NC(=O)c1cc(Br)c(Br)s1)C(=O)Nc1cccn(CC(=O)NC2C3CC4CC(C3)CC2C4)c1=O` (stereo partly drawn) [III-19, (S,E)-methyl 6-(4,5-dibromothiophene-2-carboxamido)-7-(1-(2-(2-adamantylamino)-2-oxoethyl)-2-oxo-1,2-dihydropyridin-3-ylamino)-7-oxohept-2-enoate] had a pH-dependent lipophilicity (logD) in series [1] of 3 to 5. In series [2], this molecule displayed a Papp of 1 to 10 ×10⁻⁶ cm/s. Also, in series [3], the 50% inhibitory concentration (IC50) was less than 0.025 µM.

The values above are taken from US20240317708A1, “INHIBITORS OF TRANSGLUTAMINASES” (ZEDIRA GMBH, priority 2021, published 2024).
